Earlier results as cited in patent US7060435B1, “Genotyping cytochrome expression” (Janssen Pharmaceutica, priority 1998, dated 2006).

Target: CYP3A4 and CYP3A5 (Homo sapiens, UniProt P08684)
Conditions: samples containing only CYP3A4

Sequence of CYP3A4 and CYP3A5 (P08684 2-503): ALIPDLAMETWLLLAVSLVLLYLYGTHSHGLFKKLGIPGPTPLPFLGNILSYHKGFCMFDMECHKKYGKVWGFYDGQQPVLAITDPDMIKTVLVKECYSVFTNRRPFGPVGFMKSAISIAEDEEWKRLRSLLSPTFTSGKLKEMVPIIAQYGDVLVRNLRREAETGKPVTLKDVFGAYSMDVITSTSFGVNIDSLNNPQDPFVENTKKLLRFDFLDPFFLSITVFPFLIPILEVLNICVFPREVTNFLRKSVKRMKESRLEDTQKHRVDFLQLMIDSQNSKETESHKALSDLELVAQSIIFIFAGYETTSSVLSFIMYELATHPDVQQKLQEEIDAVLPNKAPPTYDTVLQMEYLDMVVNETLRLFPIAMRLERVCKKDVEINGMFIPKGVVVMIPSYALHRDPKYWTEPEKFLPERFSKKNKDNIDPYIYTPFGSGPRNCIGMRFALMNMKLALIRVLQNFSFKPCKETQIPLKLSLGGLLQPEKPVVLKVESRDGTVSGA

Cc1ncc2n1-c1ccc(Cl)cc1C(c1ccccc1F)=NC2 [midazolam]
1-OHM/4-OHM ratio: < 4
